Molecular target: Neurotensin receptor type 1 (Homo sapiens) (UniProt P30989)
Assay: neurotensin receptor 1 activation by analogs – imaging, image-based, set 4, SAR follow-up (AID 602426)
Details: NTR1-U2OS beta-arrestin-GFP spot imaging

Chain of Neurotensin receptor type 1 (Homo sapiens) (P30989 whole entry, looked up): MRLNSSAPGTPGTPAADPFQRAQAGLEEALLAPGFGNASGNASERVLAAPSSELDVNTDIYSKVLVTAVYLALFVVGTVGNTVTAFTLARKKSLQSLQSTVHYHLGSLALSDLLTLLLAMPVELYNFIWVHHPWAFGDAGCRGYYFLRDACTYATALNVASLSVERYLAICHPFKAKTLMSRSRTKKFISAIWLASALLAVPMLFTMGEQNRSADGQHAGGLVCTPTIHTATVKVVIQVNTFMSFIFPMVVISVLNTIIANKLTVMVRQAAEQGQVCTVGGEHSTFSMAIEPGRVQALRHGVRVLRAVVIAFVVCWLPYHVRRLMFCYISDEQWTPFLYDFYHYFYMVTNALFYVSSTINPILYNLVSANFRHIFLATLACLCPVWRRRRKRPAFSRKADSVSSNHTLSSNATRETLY

EC50: 925 nM
SMILES: COc1cccc(OC)c1-c1cc(C(=O)N[C@@H](CC(C)C)C(=O)O)nn1-c1ccnc2cc(Cl)ccc12

— PubChem BioAssay AID602426 (Sanford-Burnham Center for Chemical Genomics, 2012)
